Experimental data reported in the supplement of paper PMC6045584.
± gives the standard deviation of the averaged measurements.

What was measured:
[1] = compound: CCn1c(C(=O)N(C2CC2)C2CC2)cc2c3c(ncn3C)c(Nc3cc(C)n(C)n3)nc21; assay: surviving fraction relative to DMSO-only wells; higher = less growth inhibition; conditions: exposure time: 5 days
Procedure, shortened: (§1)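 Tumour cell lines were grown to log phase and seeded at 250–500 cells per well in 384-well plates. They were exposed continuously to inhibitors at 0.5, 1, 5, 10, 50, 100, 500 and 1000 nM for five days, beginning 24 hours after seeding. Surviving fraction is CellTiter-Glo luminescence normalised to the median of DMSO-only wells.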

DASATINIB = compound: Cc1nc(Nc2ncc(C(=O)Nc3c(C)cccc3Cl)s2)cc(N2CCN(CCO)CC2)n1 [DASATINIB]; assay: as above; conditions: exposure time: 5 days
Procedure, shortened: as §1

| Test System | surviving fraction ([1]; 0.5 nM) | surviving fraction ([1]; 1 nM) | surviving fraction ([1]; 5 nM) | surviving fraction ([1]; 10 nM) | surviving fraction ([1]; 50 nM) | surviving fraction ([1]; 100 nM) | surviving fraction ([1]; 500 nM) | surviving fraction ([1]; 1000 nM) | surviving fraction (DASATINIB; 0.5 nM) | surviving fraction (DASATINIB; 1 nM) | surviving fraction (DASATINIB; 5 nM) | surviving fraction (DASATINIB; 10 nM) | surviving fraction (DASATINIB; 50 nM) | surviving fraction (DASATINIB; 100 nM) | surviving fraction (DASATINIB; 500 nM) | surviving fraction (DASATINIB; 1000 nM) |
| --- | --- | --- | --- | --- | --- | --- | --- | --- | --- | --- | --- | --- | --- | --- | --- | --- |
| DU4475 BREAST | 0.875 ± 0.26 | 0.938 ± 0.15 | 0.819 ± 0.24 | 0.887 ± 0.2 | 0.713 ± 0.23 | 0.675 ± 0.29 | 0.91 ± 0.46 | 1.05 ± 0.35 | 0.824 ± 0.17 | 0.828 ± 0.09 | 0.802 ± 0.1 | 0.689 ± 0.21 | 0.658 ± 0.031 | 0.748 ± 0.15 | 0.669 ± 0.2 | 0.514 ± 0.083 |
| HOS BONE | 1 ± 0.0066 | 0.9927 ± 0.0081 | 0.994 ± 0.023 | 0.997 ± 0.0046 | 1.047 ± 0.0078 | 1.037 ± 0.0023 | 1.02 ± 0.013 | 0.96 ± 0.018 | 0.906 ± 0.018 | 0.908 ± 0.022 | 0.821 ± 0.015 | 0.763 ± 0.048 | 0.693 ± 0.0078 | 0.604 ± 0.015 | 0.382 ± 0.035 | 0.358 ± 0.014 |
| OS25HAL BONE | 0.9497 ± 0.005 | 0.953 ± 0.018 | 0.945 ± 0.015 | 0.952 ± 0.022 | 1.04 ± 0.024 | 1.045 ± 0.0067 | 1.018 ± 0.0064 | 1.01 ± 0.011 | 0.88 ± 0.03 | 0.849 ± 0.013 | 0.849 ± 0.035 | 0.747 ± 0.035 | 0.686 ± 0.05 | 0.599 ± 0.074 | 0.45 ± 0.073 | 0.363 ± 0.045 |
| CAL120 BREAST | 0.876 ± 0.038 | 0.911 ± 0.018 | 0.937 ± 0.036 | 0.924 ± 0.056 | 0.962 ± 0.0098 | 0.94 ± 0.036 | 0.941 ± 0.026 | 0.897 ± 0.012 | 0.877 ± 0.098 | 0.882 ± 0.025 | 0.861 ± 0.013 | 0.786 ± 0.062 | 0.497 ± 0.022 | 0.358 ± 0.021 | 0.217 ± 0.0088 | 0.192 ± 0.015 |
| SUM149.B1*.S BREAST | 1.05 ± 0.053 | 0.99 ± 0.02 | 1.05 ± 0.014 | 1 ± 0.013 | 1.08 ± 0.045 | 1.11 ± 0.018 | 1.07 ± 0.011 | 1.08 ± 0.033 | 0.905 ± 0.034 | 0.879 ± 0.036 | 0.811 ± 0.024 | 0.75 ± 0.047 | 0.5 ± 0.018 | 0.358 ± 0.0082 | 0.332 ± 0.0043 | 0.353 ± 0.032 |
| JURKAT HAEMATOPOIETIC AND LYMPHOID TISSUE | 1.092 ± 0.0091 | 1.08 ± 0.017 | 1.09 ± 0.021 | 1.05 ± 0.037 | 1.05 ± 0.036 | 1.04 ± 0.034 | 1.08 ± 0.018 | 1.09 ± 0.014 | 1.033 ± 0.0046 | 0.984 ± 0.034 | 0.927 ± 0.011 | 0.892 ± 0.011 | 0.886 ± 0.043 | 0.785 ± 0.024 | 0.614 ± 0.028 | 0.432 ± 0.016 |
| YAMATO SYNOVIAL | 1.22 ± 0.059 | 1.21 ± 0.076 | 1.234 ± 0.012 | 1.19 ± 0.027 | 1.4 ± 0.081 | 1.32 ± 0.15 | 1.327 ± 0.0092 | 1.14 ± 0.023 | 0.822 ± 0.18 | 0.729 ± 0.097 | 0.836 ± 0.19 | 0.771 ± 0.2 | 0.848 ± 0.13 | 0.753 ± 0.11 | 0.63 ± 0.039 | 0.677 ± 0.074 |
| MG63 BONE | 0.9877 ± 0.0096 | 0.944 ± 0.016 | 0.992 ± 0.02 | 0.981 ± 0.031 | 1.01 ± 0.011 | 0.98 ± 0.015 | 0.928 ± 0.013 | 0.891 ± 0.021 | 0.899 ± 0.035 | 0.901 ± 0.013 | 0.785 ± 0.015 | 0.691 ± 0.0046 | 0.469 ± 0.0076 | 0.357 ± 0.012 | 0.204 ± 0.0021 | 0.194 ± 0.0071 |
| COLO320DM LARGE INTESTINE | 1.03 ± 0.053 | 1.11 ± 0.0081 | 1.15 ± 0.1 | 1.08 ± 0.11 | 1.17 ± 0.14 | 1.18 ± 0.095 | 1.14 ± 0.063 | 1.27 ± 0.22 | 1.12 ± 0.096 | 1.01 ± 0.051 | 1.08 ± 0.074 | 1.1 ± 0.034 | 1.03 ± 0.028 | 1.02 ± 0.056 | 1.09 ± 0.045 | 1.09 ± 0.089 |
| CADOES1 SOFT TISSUE | 0.958 ± 0.066 | 0.961 ± 0.061 | 0.905 ± 0.13 | 0.92 ± 0.068 | 0.889 ± 0.16 | 0.94 ± 0.026 | 0.913 ± 0.033 | 0.988 ± 0.091 | 1.04 ± 0.07 | 1.01 ± 0.034 | 0.91 ± 0.042 | 0.939 ± 0.11 | 1.01 ± 0.079 | 0.973 ± 0.081 | 1.05 ± 0.099 | 1.14 ± 0.1 |
| SG27 HEADNECK | 0.996 ± 0.14 | 0.974 ± 0.089 | 1.01 ± 0.067 | 1.01 ± 0.056 | 1.02 ± 0.077 | 1.03 ± 0.11 | 0.915 ± 0.074 | 0.931 ± 0.17 | 0.939 ± 0.12 | 1.01 ± 0.035 | 0.889 ± 0.15 | 0.736 ± 0.013 | 0.531 ± 0.0053 | 0.42 ± 0.038 | 0.35 ± 0.059 | 0.369 ± 0.064 |
| MHM BONE | 0.979 ± 0.035 | 0.964 ± 0.015 | 1 ± 0.022 | 0.995 ± 0.013 | 1 ± 0.019 | 0.999 ± 0.0044 | 0.976 ± 0.024 | 0.949 ± 0.022 | 0.966 ± 0.032 | 0.933 ± 0.058 | 0.846 ± 0.065 | 0.815 ± 0.049 | 0.686 ± 0.011 | 0.635 ± 0.0097 | 0.525 ± 0.0055 | 0.488 ± 0.018 |
| SCC36 HEADNECK | 0.87 ± 0.045 | 1.07 ± 0.1 | 1.12 ± 0.077 | 1.11 ± 0.044 | 1.12 ± 0.073 | 1.04 ± 0.032 | 1.07 ± 0.093 | 0.962 ± 0.057 | 0.788 ± 0.13 | 0.676 ± 0.033 | 0.705 ± 0.078 | 0.678 ± 0.1 | 0.385 ± 0.078 | 0.19 ± 0.032 | 0.12 ± 0.013 | 0.112 ± 0.011 |
| MDAMB453 BREAST | 1.02 ± 0.033 | 0.992 ± 0.039 | 0.983 ± 0.02 | 0.986 ± 0.028 | 1.048 ± 0.0087 | 1.05 ± 0.033 | 1.04 ± 0.015 | 1.02 ± 0.028 | 1.03 ± 0.046 | 0.995 ± 0.047 | 1.06 ± 0.018 | 1 ± 0.047 | 1.03 ± 0.025 | 1.02 ± 0.052 | 1 ± 0.036 | 1.02 ± 0.091 |
| HCC1806 BREAST | 0.959 ± 0.2 | 0.993 ± 0.095 | 1.13 ± 0.043 | 1.04 ± 0.089 | 1.02 ± 0.11 | 1.21 ± 0.1 | 0.982 ± 0.078 | 0.885 ± 0.12 | 0.682 ± 0.085 | 0.639 ± 0.021 | 0.71 ± 0.059 | 0.639 ± 0.075 | 0.446 ± 0.017 | 0.219 ± 0.038 | 0.167 ± 0.015 | 0.149 ± 0.021 |
| HOSMNG BONE | 1 ± 0.071 | 0.979 ± 0.11 | 0.992 ± 0.068 | 0.985 ± 0.07 | 1.04 ± 0.061 | 1.08 ± 0.08 | 1.01 ± 0.1 | 1.09 ± 0.038 | 0.979 ± 0.032 | 0.971 ± 0.05 | 0.868 ± 0.021 | 0.741 ± 0.027 | 0.603 ± 0.021 | 0.457 ± 0.016 | 0.36 ± 0.019 | 0.372 ± 0.0076 |
| SG32 HEADNECK | 0.996 ± 0.081 | 1.17 ± 0.013 | 1.22 ± 0.2 | 1.22 ± 0.25 | 0.95 ± 0.19 | 0.98 ± 0.12 | 1.02 ± 0.24 | 0.86 ± 0.022 | 0.606 ± 0.048 | 0.653 ± 0.14 | 0.564 ± 0.11 | 0.438 ± 0.06 | 0.395 ± 0.09 | 0.171 ± 0.037 | 0.155 ± 0.015 | 0.147 ± 0.022 |
| MFM223 BREAST | 1.07 ± 0.076 | 1.02 ± 0.056 | 1.03 ± 0.047 | 1.04 ± 0.053 | 1.1 ± 0.087 | 1.18 ± 0.075 | 1.17 ± 0.092 | 1.15 ± 0.089 | 0.778 ± 0.17 | 0.785 ± 0.2 | 0.767 ± 0.18 | 0.684 ± 0.05 | 0.834 ± 0.059 | 0.86 ± 0.1 | 0.788 ± 0.091 | 0.68 ± 0.06 |
| MDAMB134 BREAST | 1.16 ± 0.2 | 1.07 ± 0.086 | 1.15 ± 0.23 | 0.87 ± 0.014 | 1.04 ± 0.14 | 0.986 ± 0.14 | 0.907 ± 0.0014 | 0.976 ± 0.025 | 0.71 ± 0.023 | 0.687 ± 0.0057 | 0.531 ± 0.013 | 0.534 ± 0.096 | 0.704 ± 0.018 | 0.6445 ± 0.0035 | 0.635 ± 0.019 | 0.606 ± 0.0064 |
| NCIH441 LUNG | 0.92 ± 0.068 | 0.97 ± 0.033 | 1.03 ± 0.033 | 1.01 ± 0.13 | 0.952 ± 0.063 | 1.04 ± 0.037 | 1.06 ± 0.068 | 1.04 ± 0.017 | 0.994 ± 0.053 | 1.01 ± 0.052 | 0.878 ± 0.085 | 0.921 ± 0.046 | 0.846 ± 0.058 | 0.557 ± 0.056 | 0.462 ± 0.073 | 0.341 ± 0.046 |
